Assay results as given in the NIST ThermoML archive (doi:10.1021/acs.jced.5b00251).

Experiment: refractive index (other wavelength) (dimensionless); xn = mol fraction of the nth substance listed
Details: 101 kPa, Liquid, Standard Abbe refractometry

CC(C)Cc1ccccc1 [(2-methylpropyl)benzene] + CCCCCCCCCCCC
refractive index
Details	x1 = 0.1014	x1 = 0.2024	x1 = 0.3032	x1 = 0.4036	x1 = 0.5038	x1 = 0.6036	x1 = 0.7032	x1 = 0.8024	x1 = 0.9014
293.15 K, Wavelength=436.1 nm	1.43714	1.44344	1.45015	1.45682	1.46405	1.47144	1.47917	1.48711	1.49556
293.15 K, Wavelength=513.9 nm	1.4307	1.4365	1.44273	1.44889	1.45559	1.46247	1.46959	1.47693	1.48487
293.15 K, Wavelength=589.3 nm	1.42708	1.4326	1.43856	1.44443	1.45083	1.45746	1.46421	1.47122	1.47869
293.15 K, Wavelength=633.2 nm	1.42554	1.43094	1.4368	1.44255	1.44884	1.45524	1.46196	1.46884	1.47617
293.15 K, Wavelength=657.2 nm	1.42541	1.43084	1.43659	1.44269	1.44849	1.45427	1.46085	1.46776	1.47491
298.15 K, Wavelength=436.1 nm	1.43491	1.44124	1.44775	1.45454	1.46153	1.46903	1.47676	1.48462	1.49284
298.15 K, Wavelength=513.9 nm	1.42851	1.43425	1.44037	1.44665	1.45312	1.46005	1.46722	1.4745	1.48229
298.15 K, Wavelength=589.3 nm	1.4249	1.43032	1.43623	1.44221	1.44841	1.45504	1.46188	1.46882	1.47611
298.15 K, Wavelength=633.2 nm	1.42337	1.42885	1.43449	1.44035	1.44642	1.45293	1.45965	1.46646	1.47371
298.15 K, Wavelength=657.2 nm	1.42267	1.42867	1.43417	1.44009	1.44578	1.45198	1.45863	1.46548	1.47249
303.15 K, Wavelength=436.1 nm	1.43262	1.43872	1.44552	1.45204	1.45929	1.4666	1.47424	1.48209	1.49024
303.15 K, Wavelength=513.9 nm	1.42624	1.43187	1.43818	1.44421	1.45077	1.45769	1.46477	1.47203	1.47981
303.15 K, Wavelength=589.3 nm	1.42267	1.42804	1.43406	1.43981	1.44611	1.45269	1.45946	1.46639	1.47362
303.15 K, Wavelength=633.2 nm	1.42115	1.42643	1.43232	1.43796	1.44427	1.45059	1.45721	1.46405	1.47135
303.15 K, Wavelength=657.2 nm	1.42052	1.42618	1.4321	1.43801	1.44358	1.44965	1.45625	1.46299	1.47001
308.15 K, Wavelength=436.1 nm	1.43035	1.43663	1.44293	1.44977	1.45671	1.46416	1.47181	1.47955	1.48775
308.15 K, Wavelength=513.9 nm	1.42401	1.42966	1.43562	1.44199	1.44841	1.45531	1.46239	1.46958	1.47731
308.15 K, Wavelength=589.3 nm	1.42043	1.42581	1.43152	1.43762	1.44375	1.45034	1.45708	1.46398	1.47126
308.15 K, Wavelength=633.2 nm	1.41894	1.42433	1.42979	1.4358	1.44178	1.44827	1.45488	1.46165	1.46871
308.15 K, Wavelength=657.2 nm	1.41824	1.42395	1.42984	1.43554	1.44115	1.44715	1.45387	1.46065	1.46758
313.15 K, Wavelength=436.1 nm	1.42808	1.43404	1.44059	1.4473	1.45448	1.46172	1.46924	1.47706	1.48511
313.15 K, Wavelength=513.9 nm	1.42179	1.42725	1.43332	1.43955	1.44611	1.45293	1.4599	1.46712	1.47502
313.15 K, Wavelength=589.3 nm	1.41826	1.42345	1.42938	1.4352	1.44159	1.44797	1.45466	1.46154	1.46878
313.15 K, Wavelength=633.2 nm	1.41677	1.42191	1.42752	1.43336	1.43965	1.4459	1.45247	1.45924	1.46652
313.15 K, Wavelength=657.2 nm	1.41612	1.42149	1.42761	1.43304	1.43882	1.44496	1.45159	1.45817	1.46515
318.15 K, Wavelength=436.1 nm	1.42579	1.43204	1.43791	1.44498	1.4518	1.45921	1.46673	1.47452	1.48247
318.15 K, Wavelength=513.9 nm	1.41953	1.42512	1.43094	1.43729	1.44389	1.45049	1.45744	1.46465	1.47245
318.15 K, Wavelength=589.3 nm	1.41596	1.42122	1.42669	1.43297	1.43898	1.44556	1.45224	1.4591	1.46615
318.15 K, Wavelength=633.2 nm	1.41454	1.41993	1.425	1.43114	1.4371	1.44352	1.45008	1.45679	1.46372
318.15 K, Wavelength=657.2 nm	1.41386	1.41979	1.42574	1.43091	1.43665	1.44244	1.44935	1.45594	1.46262
